This note sets out measurements from ChEMBL document CHEMBL2331281, “Isolation of ciliatamide D from a marine sponge Stelletta sp. and a reinvestigation of the configuration of ciliatamide A” (J Nat Prod, 2013).

Calls of active or inactive are those of the source. The rule behind the calls is not given here.

The test system of one experiment is HeLa. Kind of experiment: Cytotoxicity against human HeLa cells at 50 ug/ml after 72 hrs by MTT assay. The experiment is classed as functional, cell-based. A general note: Formazan colour is commonly taken as a measure of viable cells.
For experiment [1], the target named is Cathepsin B (Homo sapiens) (UniProt P07858). In words: Inhibition of cathepsin B (unknown origin) using Z-Arg-Arg-AMC as substrate at 50 ug/ml after 30 mins by fluorescence assay.

As for `C=CCCCCCCCC(=O)N(C)[C@@H](CC[S+](C)[O-])C(=O)N[C@H]1CCCCNC1=O` (mixture of isomers), in the experiment on HeLa, the result was inactive. Moreover, in experiment [1], the inhibition result is “inactive”.
